In the supplement of paper PMC10307832:

Key:
Test in all cases: relative viability (nuclei count vs DMSO), 5 days (fraction); higher = more cells survive
HCC-78 = test system: HCC-78
Outline: (§1)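 After 5 days of treatment, lung cancer cells in 1536-well plates were fixed and stained in a single step (final 0.05% Triton X-100, 1% formaldehyde, 1 ug/ml Hoechst) and their nuclei counted on 4× images. Treatment had been applied by pin tool the day after seeding as one drug alone or as a fixed anchor-drug dose with five library-drug doses (not always all listed) in √10 steps. Relative viability is the nuclei count of treated wells divided by that of vehicle wells, and values are medians of duplicate plates.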

SW 1573 = test system: SW 1573
Outline: as §1

RERF-LC-KJ = test system: RERF-LC-KJ
Outline: as §1

NCI-H1755 = test system: NCI-H1755
Outline: as §1

NCI-H1975 = test system: NCI-H1975
Outline: as §1

NCI-H2347 = test system: NCI-H2347
Outline: as §1

PC-3 [JPC-3] = test system: PC-3 [JPC-3]
Outline: as §1

NCI-H2126 = test system: NCI-H2126
Outline: as §1

NCI-H647 = test system: NCI-H647
Outline: as §1

LC-2-ad = test system: LC-2-ad
Outline: as §1

HCC-15 = test system: HCC-15
Outline: as §1

A-427 = test system: A-427
Outline: as §1

SK-LU-1 = test system: SK-LU-1
Outline: as §1

HOP-62 = test system: HOP-62
Outline: as §1

NCI-H358 = test system: NCI-H358
Outline: as §1

LXF-289 = test system: LXF-289
Outline: as §1

NCI-H1915 = test system: NCI-H1915
Outline: as §1

NCI-H1792 = test system: NCI-H1792
Outline: as §1

NCI-H2228 = test system: NCI-H2228
Outline: as §1

NCI-H1734 = test system: NCI-H1734
Outline: as §1

## COc1nc(C)cnc1NS(=O)(=O)c1cccnc1-c1ccc(-c2nnco2)cc1 [Zibotentan] + C[C@@H](Oc1cc(-c2cnn(C3CCNCC3)c2)cnc1N)c1c(Cl)ccc(F)c1Cl [Crizotinib] (partner 1 µM)
HCC-78; first compound 0.08 µM
  relative viability: 0.336
HCC-78; first compound 0.253 µM
  relative viability: 0.311
HCC-78; first compound 0.8 µM
  relative viability: 0.324
HCC-78; first compound 2.53 µM
  relative viability: 0.343
SW 1573; first compound 0.08 µM
  relative viability: 0.923
SW 1573; first compound 0.253 µM
  relative viability: 0.745
SW 1573; first compound 0.8 µM
  relative viability: 0.822
SW 1573; first compound 2.53 µM
  relative viability: 0.856
RERF-LC-KJ; first compound 0.08 µM
  relative viability: 0.921
RERF-LC-KJ; first compound 0.253 µM
  relative viability: 0.802
RERF-LC-KJ; first compound 0.8 µM
  relative viability: 0.786
RERF-LC-KJ; first compound 2.53 µM
  relative viability: 0.855
NCI-H1755; first compound 0.08 µM
  relative viability: 0.891
NCI-H1755; first compound 0.253 µM
  relative viability: 0.887
NCI-H1755; first compound 0.8 µM
  relative viability: 0.826
NCI-H1755; first compound 2.53 µM
  relative viability: 0.873
NCI-H1975; first compound 0.08 µM
  relative viability: 1.04
NCI-H1975; first compound 0.253 µM
  relative viability: 0.871
NCI-H1975; first compound 0.8 µM
  relative viability: 0.837
NCI-H1975; first compound 2.53 µM
  relative viability: 0.967
NCI-H2347; first compound 0.08 µM
  relative viability: 0.706
NCI-H2347; first compound 0.253 µM
  relative viability: 0.476
NCI-H2347; first compound 0.8 µM
  relative viability: 0.715
NCI-H2347; first compound 2.53 µM
  relative viability: 0.672
PC-3 [JPC-3]; first compound 0.08 µM
  relative viability: 0.951
PC-3 [JPC-3]; first compound 0.253 µM
  relative viability: 0.967
PC-3 [JPC-3]; first compound 0.8 µM
  relative viability: 0.955
PC-3 [JPC-3]; first compound 2.53 µM
  relative viability: 0.966
NCI-H2126; first compound 0.08 µM
  relative viability: 1.01
NCI-H2126; first compound 0.253 µM
  relative viability: 0.94
NCI-H2126; first compound 0.8 µM
  relative viability: 0.992
NCI-H2126; first compound 2.53 µM
  relative viability: 1.05
NCI-H647; first compound 0.08 µM
  relative viability: 1.04
NCI-H647; first compound 0.253 µM
  relative viability: 1.06
NCI-H647; first compound 0.8 µM
  relative viability: 1.18
NCI-H647; first compound 2.53 µM
  relative viability: 1.23
LC-2-ad; first compound 0.08 µM
  relative viability: 0.511
LC-2-ad; first compound 0.253 µM
  relative viability: 0.448
LC-2-ad; first compound 0.8 µM
  relative viability: 0.493
LC-2-ad; first compound 2.53 µM
  relative viability: 0.469
HCC-15; first compound 0.08 µM
  relative viability: 0.918
HCC-15; first compound 0.253 µM
  relative viability: 0.748
HCC-15; first compound 0.8 µM
  relative viability: 0.843
HCC-15; first compound 2.53 µM
  relative viability: 0.885
A-427; first compound 0.08 µM
  relative viability: 0.858
A-427; first compound 0.253 µM
  relative viability: 0.91
A-427; first compound 0.8 µM
  relative viability: 0.904
A-427; first compound 2.53 µM
  relative viability: 0.84
SK-LU-1; first compound 0.08 µM
  relative viability: 0.879
SK-LU-1; first compound 0.253 µM
  relative viability: 0.841
SK-LU-1; first compound 0.8 µM
  relative viability: 0.928
SK-LU-1; first compound 2.53 µM
  relative viability: 1.05
HOP-62; first compound 0.08 µM
  relative viability: 0.854
HOP-62; first compound 0.253 µM
  relative viability: 0.862
HOP-62; first compound 0.8 µM
  relative viability: 1.02
HOP-62; first compound 2.53 µM
  relative viability: 1.06
NCI-H358; first compound 0.08 µM
  relative viability: 0.581
NCI-H358; first compound 0.8 µM
  relative viability: 0.665
NCI-H358; first compound 2.53 µM
  relative viability: 0.617
LXF-289; first compound 0.08 µM
  relative viability: 0.882
LXF-289; first compound 0.253 µM
  relative viability: 0.804
LXF-289; first compound 0.8 µM
  relative viability: 0.822
LXF-289; first compound 2.53 µM
  relative viability: 0.805
NCI-H1915; first compound 0.08 µM
  relative viability: 0.968
NCI-H1915; first compound 0.253 µM
  relative viability: 0.879
NCI-H1915; first compound 0.8 µM
  relative viability: 0.957
NCI-H1915; first compound 2.53 µM
  relative viability: 0.945
NCI-H1792; first compound 0.08 µM
  relative viability: 1.19
NCI-H1792; first compound 0.253 µM
  relative viability: 0.949
NCI-H1792; first compound 0.8 µM
  relative viability: 0.884
NCI-H1792; first compound 2.53 µM
  relative viability: 0.99
NCI-H2228; first compound 0.08 µM
  relative viability: 0.548
NCI-H2228; first compound 0.253 µM
  relative viability: 0.369
NCI-H2228; first compound 0.8 µM
  relative viability: 0.451
NCI-H2228; first compound 2.53 µM
  relative viability: 0.441
NCI-H1734; first compound 0.08 µM
  relative viability: 0.808
NCI-H1734; first compound 0.253 µM
  relative viability: 0.699
NCI-H1734; first compound 0.8 µM
  relative viability: 0.724
NCI-H1734; first compound 2.53 µM
  relative viability: 0.724
